Source: patent publication US7605175B2, “Inhibitors of cyclin-dependent kinases, compositions and uses related thereto” (GPC Biotech AG, priority 2001, dated 2009)

How the values were obtained:
HCT-116 cells [1] = test: BrdU incorporation assay; assay type: cell-based; conditions: Homo sapiens, read-out: Brd U, concentration that inhibits BrdU incorporation by 50%
Description: This method measured the percentage of cells that incorporated the nucleotide analog, BrdU, into newly synthesized DNA as cells progressed through the S phase of the cell cycle. The inhibition of BrdU incorporation was used as a measure of a Cdk inhibitor's effect on S phase progression and DNA replication.
3 sets of HCT-116 cells (100,000 cells/set) were plated in T25 flasks and incubated with a test compound as above. Analysis was done at 24, 48, and 72 hours. BrdU was added to each T-25 flask from a stock of 10 mg/ml to a final concentration of 10 μM and the cells were incubated for an additional 16-18 hours at 37° C. The cells were then prepared for flow cytometric analysis according to manufacturer's protocol (BrdU Flow kit, BD-Pharmingen catalogue #2354KK) as follows:
Cells were harvested (adherent and floating) from the T25 flasks directly into Falcon 12×75 flow cytometric tubes as above followed by fixation and permeabilization with the addition of 100 μl of Cytofix/Cytoperm buffer (30 minutes, room temperature). The cells were then washed with 1 ml of Perm Wash buffer and the cell pellets were resuspended in 100 μl Cytoperm Plus buffer and incubated on ice for 10 minutes. The cells were then washed again with 1 ml of Perm Wash buffer and the fixation was repeated in 100 μl of Cytofix/Cyto Perm buffer for 10 minutes at room temperature. The cells were then washed with 1 ml of Perm Wash buffer. The cells were next treated for one hour at 37° C. with 100 μl DNase to expose incorporated BrdU followed by another wash step with 1 ml of Perm Wash buffer. […] Cells were protected from light and incubated at room temperature for 20-30 minutes. Following the incubation, the cells were washed with 1 ml of Perm Wash buffer, resuspended in 300 μl of 2% FBS in PBS, and analyzed on the flow cytometer. Results are presented in Table 2 as the concentration of compound (μM) that inhibits of BrdU incorporation by 50%.

HCT-116 cells [2] = test: Calcein AM viability assay, HCT-116; assay type: cell-based; conditions: Homo sapiens
Description: The potency of Cdk inhibitors, as measured by loss of cellular viability, was determined with the Calcein AM assay (Molecular Probes). Calcein AM is a substrate of intracellular esterases, which is cleaved only in viable cells to generate a fluorescent product that can be quantified with a fluorescent plate reader. The fluorescent signal is proportional to the number of viable cells, and thus loss of signal in response to the exposure of cells to Cdk inhibitors correlates with a loss of viability. This assay can distinguish cell cycle arrest, in which cells may still by viable, from loss of viability and is thus well suited for the evaluation of Cdk inhibitors. A compound that is a potent cytotoxic, may cause significant loss of cell viability in such assay.
Cellular IC50's were determined in the human colorectal carcinoma cell line, HCT-116, and the normal human fibroblast, IMR90. Protein adjusted IC50's were also determined in HCT-116.
HCT-116 or IMR90 cells were recovered from sub-confluent plates by trypsinization and 1,000 or 4,000 cells, respectively, were plated in 24-well dishes and incubated overnight at 37° C., 5% CO2. HCT-116 cells were cultured in RPMI-1640, 10% FCS, and IMR90 cells were cultured in Minimum Essential Medium-alpha, 10% FCS. After overnight incubation to allow adherence, the media was aspirated from each well and replaced with media containing a test compound at a concentration from 0 to 250 nM, spanning a total of 7 doses. The plates were returned to the incubator and cultured for an additional 72 hours (3 days). […] After 72-hours incubation with the test compound, the cells were washed twice with 1×PBS, taking special care to remove all residual buffer.
A 5 μM Calcein AM solution was prepared by dissolving a […] aliquot of Calcein (Molecular Probes catalog # C3100) in 50 μl DMSO. After the Calcein had completely dissolved (10 minutes at room temperature), it was diluted into 10 ml PBS. Calcein/PBS (0.5 ml) was added to each well. The plates were incubated for 75 minutes at 37° C. (protected from light) and the fluorescent signal was read on a fluorescent plate reader (excitation 485/20 and emission 530/25).

arrested HCT-116 cells = test: Arrested cell assay, arrested HCT-116 tumor cells; assay type: cell-based; conditions: Homo sapiens, serum-starved arrested cells, 72 hours, read-out: Arrested cell assay HCT IC50
Description: (§1) Cyclin-dependent kinase (Cdk) activity is required to promote the progression of cells through distinct phases of the cell division cycle. The proliferation of normal, non-transformed, cells in culture requires the presence of growth factors, the removal of which, through serum deprivation, leads to a loss of Cdk activity and consequent exit from the cell cycle as cells enter the quiescent phase, G0.
HCT-116 cells were plated in triplicate for each compound concentration to be tested in RPMI 1640 media containing 10% fetal calf serum at a density of either 200 or 2,000 cells per well in 24 well dishes, and incubated overnight at 37° C., 5% CO2. The media from the plate containing 2,000 cells per well was removed, cells were washed once with serum free media and 1 ml of serum free media was placed on cells. The plates containing cells both in the presence and absence of serum were incubated for 6 additional days.
(§2) The cells are incubated in the presence of the compounds for 72 hours (3 days) at 37° C. […] Cycling and arrested HCT-116 cells as well as cycling IMR90 cells were exposed to a panel of 6 doses ranging from 5 to 250 nM. For arrested normal cells, the range of doses was increased to 50 nM to 25 μM, to compensate for the expected decrease in activity.
(§3) The effect of 72 hours of compound exposure on cellular viability was assessed in the Calcein AM assay. Calcein AM is a fluorescent substrate of intracellular esterases that are only active in viable cells. Cleavage of the substrate thus provides a measure of viability, which is proportional to cell number.
(§4) A Calcein AM stock solution was prepared by dissolving a 50 μg aliquot (Molecular Probes catalogue # C3100) in 50 μl DMSO. The tube was incubated at room temperature for approximately 10 minutes to ensure that the Calcein had dissolved completely. The calcein was diluted into 10 ml PBS to prepare the final solution, which was protected from light.
(§5) The media was aspirated off the cells, which were then washed twice with 1 ml PBS to remove the PBS completely from cells by aspiration. 0.5 ml of the Calcein/PBS solution was transferred by pipette into each well. The plates were incubated at 37° C. for 75 minutes (protected from light) and read on a fluorescent plate reader (excitation 485/20 and emission 530/25).

arrested IMR90 cells = test: Arrested cell assay, arrested IMR90 normal cells; assay type: cell-based; conditions: Homo sapiens, IMR-90; serum-starved arrested cells, 72 hours; read-out: Arrested cell assay IMR90 IC50
Description: as §1
IMR90 cells were plated in triplicate for each compound concentration to be tested in MEM-A media containing 10% fetal calf serum at a density of either 2,000 or 20,000 cells per well in 24-well dishes and incubated overnight at 37° C., 5% CO2. The media was removed from the 20,000 cell-per-well dish, cells were washed once with serum-free media, and serum-free media was placed on cells. The plates containing cells both in the presence and absence of serum were incubated for 3 additional days.
as §2, §3, §4, §5

Cdk2/cyclin E = molecular target: T1, Cdk2/cyclin E (Homo sapiens, UniProt P24941); test: Biochemical kinase assay Cdk2/cyclin E; conditions: Table 6
T1 construct: made in house; host or cells: Sf9 insect cells
Procedure, shortened: (§6)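 Sf9-expressed Cdk/cyclin heterodimers phosphorylate GST-Rb (residues 379–928, 40 μg) with 50 μM ATP plus [γ-33P]ATP, pH 7.5, 10% DMSO, 15 min at 30 °C. Compounds 1 nM–10 μM. 33P captured on glutathione-sepharose and scintillation-counted; activity relative to DMSO control after EDTA-background subtraction.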

HIV-1 ROJO = test: Antiviral activity in PBMCs infected with HIV-1 ROJO (reverse transcriptase); assay type: cell-based; conditions: for IC50: Human immunodeficiency virus 1, PBMC, 168 h, read-out: IC50: 50% inhibition of virus replication measured by reverse transcriptase levels in the supernatant, HIV-1 ROJO, 7 days post infection
Description: (§7) The activity of the certain compounds of the invention was evaluated in peripheral blood mononuclear cells (PBMCs) infected with the low passage, clinical isolate HIV-1 ROJO to generate a measure of the efficacy of these compounds in acutely infected cells. The use of these normal human cells allows an estimate of the therapeutic index of these compounds to be made. Fresh PBMCs from two donors were pooled and stimulated with PHA-P for 48-72 hours. The cells were then cultured in the presence of IL-2 to maintain the cell division initiated by the mitogenic signal. The virus was added at a multiplicity of infection of 0.1. The cells were cultured for 7 days post infection prior to the evaluation of efficacy. Viral replication was measured by the level of reverse transcriptase activity in the supernatant and cytotoxicity was measured with the MTS assay.

[3] = Cytotoxicity in PBMCs (MTS assay); assay type: cell-based, human; conditions: human
Description: as §7

Cdk4/cyclin D1 = molecular target: T2, Cdk4/cyclin D1 (Homo sapiens, UniProt P11802); test: Biochemical kinase assay Cdk4/cyclin D1; conditions: Table 6
T2 construct: made in house; host or cells: Sf9 insect cells
Procedure, shortened: as §6

Cdc2/cyclin B = molecular target: T3, Cdc2/cyclin B (Homo sapiens, UniProt P06493); test: Biochemical kinase assay Cdc2/cyclin B; conditions: Table 6
T3 construct: purchased
Procedure, shortened: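 Radiometric TCA-precipitation assay measuring [γ-32P]ATP incorporation into Histone H1 (20 μg); 50 μM ATP, 10% DMSO, Tris pH 7.5 with MgCl2 and DTT. Compounds at 1 nM to 10 μM; reaction 20 min at 30 °C, stopped with EDTA/ATP. Activity relative to DMSO control after subtracting 50 mM EDTA background.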

[4] = HCT-116, plus 1 mg/ml alpha acidic glycoprotein and 45 mg/ml human serum albumin, read-out: HCT-116 IC50 Protein adjusted
[5] = HCT-116, non-protein adjusted, Table 6, read-out: HCT-116 viability IC50
[6] = HCT-116, 72 h, Calcein AM, 72 hours, read-out: HCT-116 IC50 Viability

T2 sequence (P11802 whole entry, species assumed): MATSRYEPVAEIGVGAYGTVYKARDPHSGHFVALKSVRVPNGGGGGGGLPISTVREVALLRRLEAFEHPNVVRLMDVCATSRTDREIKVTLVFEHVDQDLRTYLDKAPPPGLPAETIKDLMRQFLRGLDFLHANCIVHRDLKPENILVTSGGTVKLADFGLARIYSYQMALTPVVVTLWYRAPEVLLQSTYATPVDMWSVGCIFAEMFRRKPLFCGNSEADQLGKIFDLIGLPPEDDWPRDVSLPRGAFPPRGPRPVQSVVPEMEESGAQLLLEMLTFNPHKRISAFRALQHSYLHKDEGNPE
T2 sequence (P24385 whole entry partner, species assumed): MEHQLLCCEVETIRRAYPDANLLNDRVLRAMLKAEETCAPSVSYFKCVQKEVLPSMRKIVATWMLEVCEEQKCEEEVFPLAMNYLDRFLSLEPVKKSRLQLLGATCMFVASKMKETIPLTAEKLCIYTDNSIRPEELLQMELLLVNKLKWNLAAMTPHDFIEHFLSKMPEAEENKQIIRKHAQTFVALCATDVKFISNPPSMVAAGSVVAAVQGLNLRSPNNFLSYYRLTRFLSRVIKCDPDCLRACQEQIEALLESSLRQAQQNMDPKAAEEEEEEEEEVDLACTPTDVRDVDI
T3 sequence (P06493 whole entry, species assumed): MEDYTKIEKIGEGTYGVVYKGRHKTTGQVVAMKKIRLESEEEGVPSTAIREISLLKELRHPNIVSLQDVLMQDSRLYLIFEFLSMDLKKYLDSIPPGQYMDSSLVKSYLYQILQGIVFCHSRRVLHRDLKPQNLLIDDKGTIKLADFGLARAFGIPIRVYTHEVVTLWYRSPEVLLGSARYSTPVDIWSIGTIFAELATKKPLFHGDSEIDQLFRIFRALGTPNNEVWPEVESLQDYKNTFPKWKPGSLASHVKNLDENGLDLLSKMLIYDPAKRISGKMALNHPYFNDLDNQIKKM
T3 sequence (P14635 whole entry partner, species assumed): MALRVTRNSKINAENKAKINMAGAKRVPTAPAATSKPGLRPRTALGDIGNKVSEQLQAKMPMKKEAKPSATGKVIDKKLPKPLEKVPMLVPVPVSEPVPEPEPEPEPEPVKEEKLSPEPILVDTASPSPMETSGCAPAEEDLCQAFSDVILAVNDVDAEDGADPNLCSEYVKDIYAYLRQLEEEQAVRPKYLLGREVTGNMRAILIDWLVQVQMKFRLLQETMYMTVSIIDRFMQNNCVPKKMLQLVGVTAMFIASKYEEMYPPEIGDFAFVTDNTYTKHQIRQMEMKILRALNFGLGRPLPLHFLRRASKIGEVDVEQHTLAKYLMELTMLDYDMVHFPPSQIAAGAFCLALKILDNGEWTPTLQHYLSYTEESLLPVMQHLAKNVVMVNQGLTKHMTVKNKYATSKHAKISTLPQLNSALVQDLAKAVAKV

IC50 (HCT-116 cells [1]; HCT-116, 24 h) | IC50 (HCT-116 cells [2]; [4]) | IC50 (arrested HCT-116 cells) | IC50 (HCT-116 cells [1]; HCT-116, 48 h) | IC50 (HCT-116 cells [2]; [6]) | SMILES | IC50 (arrested IMR90 cells) | IC50 (HCT-116 cells [2]; [5]) | IC50 (Cdk2/cyclin E) | TI: TC50/IC50 (HIV-1 ROJO) | IC50 (HIV-1 ROJO) | CC50 at 7 days [3] | IC50 (Cdk4/cyclin D1) | IC50 (Cdc2/cyclin B)
< 100 nM | < 1000 nM | < 100 nM | – | – | CN1CCN(NC(=O)Nc2cccc3c2C(=O)c2c-3n[nH]c2-c2ccc(OCCN3CC[C@H](O)C3)cc2)CC1 [O] | > 100 nM | – | – | – | – | – | – | –
– | – | – | – | – | CC(C)c1nn(-c2c(Cl)cccc2Cl)c2nc(Cc3ccc(CN4CCCC4)c(O)c3)[nH]c(=O)c12.Cl [Compound C3] | – | < 100 nM | < 100 nM | >10 | < 10 nM | < 100 nM | – | –
– | < 1000 nM | < 100 nM | < 1000 nM | – | O=C(Nc1cccc2c1C(=O)c1c-2n[nH]c1-c1ccc(OCCN(CCO)CCO)cc1)NN1CCOCC1 [H] | > 1000 nM | – | – | – | – | – | – | –
– | – | < 100 nM | < 100 nM | < 100 nM | CN1CCN(NC(=O)Nc2cccc3c2C(=O)c2c-3n[nH]c2-c2ccc(OCCN3CCC[C@H]3CO)cc2)CC1 [Compound M] | > 1000 nM | – | – | – | – | – | – | –
< 10 nM | – | < 100 nM | – | < 100 nM | CCCN(CCOc1ccc(-c2[nH]nc3c2C(=O)c2c(NC(=O)NN4CCOCC4)cccc2-3)cc1)CC1CC1 [G] | > 100 nM | – | – | – | – | – | – | –
– | – | – | – | – | CC(C)c1nn(-c2c(Cl)cccc2Cl)c2nc(Cc3ccc(OCCN4CCOCC4)c(O)c3)[nH]c(=O)c12 [Compound A32] | – | < 100 nM | < 100 nM | >10 | < 10 nM | < 100 nM | < 100 nM | < 1000 nM
– | – | – | – | – | CC(C)c1nn(-c2c(Cl)cc(Cl)cc2Cl)c2nc(Cc3ccc(CNC(CO)CO)n3C)[nH]c(=O)c12.Cl [Compound C4] | – | < 100 nM | < 10 nM | >1 | < 100 nM | < 100 nM | – | –
– | – | – | – | – | CC(C)c1nn(-c2c(Cl)cc(Cl)cc2Cl)c2nc(Cc3ccc(OCCO)cc3)[nH]c(=O)c12 [Compound A61] | – | – | < 100 nM | >10 | < 10 nM | < 100 nM | < 1000 nM | < 100 nM
